Holding throughout (format): functional, cell-based
The subject of test [1] is HCT-116. Nature of the test: Cytotoxicity against human HCT-116 cells incubated for 72 hrs by MTT assay. The conditions noted are these: HCT-116, 72 h. A general note: Tetrazolium dyes change colour on reduction, which living cells bring about.
A further test relates to HepG2. Briefly: Cytotoxicity against human HepG2 cells incubated for 72 hrs by MTT assay. To be noted: HepG2, 72 h.
Another test concerns A549. Nature of the test: Cytotoxicity against human A549 cells incubated for 72 hrs by MTT assay. To be noted: A549, 72 h.
Another test concerns HeLa. Briefly: Cytotoxicity against human HeLa cells incubated for 72 hrs by MTT assay.
Test [2] concerns HCT-116. Nature of the test: Downregulation of DDX5 protein expression in human HCT-116 cells at 100 nM incubated upto 72 hrs by Western blotting assay. (In western blotting, separated proteins are transferred to a membrane and probed.)

Calls of active or inactive are those of the source. The rule behind the calls is not given here.

A word on the IC50: it is the concentration that gives 50% inhibition. Consider `CC[C@@]1(O)C(=O)OCc2c1cc1n(c2=O)Cc2c-1nc1cc3c(cc1c2-c1ccc(OC(F)(F)F)cc1)OCO3`, for which the IC50 with HCT-116 [1] was found to be 196 nM; with HepG2, 229 nM; in the test with A549 it was 87.3 nM; with HeLa, 398 nM.
Taken in the same sequence, the figures for `CC[C@@]1(O)C(=O)OCc2c1cc1n(c2=O)Cc2c-1nc1cc3c(cc1c2-c1ccc(F)c(F)c1)OCO3` were 48.8 nM, 49.9 nM, 9 nM and 39.7 nM.
In the same order, the values of `CC[C@@]1(O)C(=O)OCc2c1cc1n(c2=O)Cc2c-1nc1cc3c(cc1c2-c1ccc(OC)c(F)c1)OCO3` are 43.2 nM, 172 nM, 70.2 nM and 24.3 nM.
In the same order, the values of `CC[C@@]1(O)C(=O)OCc2c1cc1n(c2=O)Cc2c-1nc1cc3c(cc1c2-c1cccc(F)c1)OCO3` are 150 nM, 155 nM, 40 nM and 34.7 nM.
As to `CCc1c2c(nc3ccc(O)cc13)-c1cc3c(c(=O)n1C2)COC(=O)[C@]3(O)CC` [7-ETHYL-10-HYDROXYCAMPTOTHECIN], the IC50 is 367 nM in the test on HCT-116 [1], 268 nM with HepG2, 475 nM with A549 and 234 nM with HeLa. In addition, the outcome with HCT-116 [2] was inactive.
`CC[C@@]1(O)C(=O)OCc2c1cc1n(c2=O)Cc2c-1nc1cc3c(cc1c2-c1ccc(F)cc1)OCO3`: the 50% inhibitory concentration (IC50) with HCT-116 [1] was 32.7 nM; in the test with HepG2, 46.3 nM; in the test on A549, 19.8 nM; in the test with HeLa it was 11.1 nM.
In the same order, the values of `CC[C@@]1(O)C(=O)OCc2c1cc1n(c2=O)Cc2c-1nc1cc3c(cc1c2-c1cc(F)cc(OC)c1)OCO3` are 66.9 nM, 48.5 nM, 15.5 nM and 124 nM.
Consider `CC[C@@]1(O)C(=O)OCc2c1cc1n(c2=O)Cc2c-1nc1cc3c(cc1c2-c1cc(C)cc(F)c1)OCO3`, for which the IC50 is 41.4 nM in the test on HCT-116 [1], 56 nM with HepG2, 30.6 nM in the test on A549 and 56.5 nM in the test on HeLa.

These data come from ChEMBL document CHEMBL6074683, “Design, synthesis and investigation of biological activity and mechanism of fluoroaryl-substituted derivatives at the FL118 position 7” (Eur J Med Chem, 2025).
